# Results reported in ChEMBL document CHEMBL6134868, “Novel Aryl Sulfonium Modification on Vancomycin to Tackle MRSA and VRE In Vitro and In Vivo through Dual Enhanced Cell-Wall and Membrane Inhibition” (J Med Chem, 2025).
# Assays:
# Format in all cases: functional
# Settings in all cases: time 16-24 hrs
# Staphylococcus aureus [1] = assay: Antibacterial activity against vancomycin-intermediate Staphylococcus aureus Mu50 incubated for 16 to 24 hrs by broth microdilution assay
# Staphylococcus aureus [2] = assay: Antibacterial activity against methicillin-resistant Staphylococcus aureus USA300 LAC incubated for 16 to 24 hrs by broth microdilution assay
# Enterococcus faecium [3] = assay: Antibacterial activity against vancomycin-resistant Enterococcus faecium Efm-HS-0649 harboring VanA phenotype incubated for 16 to 24 hrs by broth microdilution assay
# Enterococcus faecium [4] = assay: Antibacterial activity against vancomycin-resistant Enterococcus faecium Efm-HS-08257 harboring VanM phenotype incubated for 16 to 24 hrs by broth microdilution assay
# Enterococcus faecium [5] = assay: Antibacterial activity against vancomycin-resistant Enterococcus faecium Efm-HS-vb01 harboring VanB phenotype incubated for 16 to 24 hrs by broth microdilution assay
# Enterococcus faecium [6] = assay: Antibacterial activity against vancomycin-resistant Enterococcus faecium Efm-HS-vb02 harboring VanB phenotype incubated for 16 to 24 hrs by broth microdilution assay
# Escherichia coli = assay: Antibacterial activity against Escherichia coli AB1157 incubated for 16 to 24 hrs by broth microdilution assay
# Acinetobacter baumannii [7] = assay: Antibacterial activity against carbapenem-resistant Acinetobacter baumannii CRAB-1 clinical isolate incubated for 16 to 24 hrs by broth microdilution assay
# Acinetobacter baumannii [8] = assay: Antibacterial activity against Acinetobacter baumannii ATCC19606 incubated for 16 to 24 hrs by broth microdilution assay
# Pseudomonas aeruginosa = assay: Antibacterial activity against Pseudomonas aeruginosa PAO1 incubated for 16 to 24 hrs by broth microdilution assay
# Klebsiella pneumoniae = assay: Antibacterial activity against Klebsiella pneumoniae KP-1 incubated for 16 to 24 hrs by broth microdilution assay
Compound,MIC (Staphylococcus aureus [1]),MIC (Staphylococcus aureus [2]),MIC (Enterococcus faecium [3]),MIC (Enterococcus faecium [4]),MIC (Enterococcus faecium [5]),MIC (Enterococcus faecium [6]),MIC (Escherichia coli),MIC (Acinetobacter baumannii [7]),MIC (Acinetobacter baumannii [8]),MIC (Pseudomonas aeruginosa),MIC (Klebsiella pneumoniae)
CC(C)C[C@H](C(=O)N[C@H]1C(=O)N[C@@H](CC(N)=O)C(=O)N[C@H]2C(=O)N[C@H]3C(=O)N[C@H](C(=O)N[C@H](C(=O)O)c4cc(O)cc(O)c4-c4cc3ccc4O)[C@H](O)c3ccc(c(Cl)c3)Oc3cc2cc(c3O[C@@H]2O[C@H](CO)[C@@H](O)[C@H](O)[C@H]2O[C@H]2C[C@](C)(N)[C@H](O)[C@H](C)O2)Oc2ccc(cc2Cl)[C@H]1O)N(C)CCC[S+](C)CC(O)COc1ccccc1.O=C([O-])C(F)(F)F (stereo partly specified),8 µg/mL,2 µg/mL,> 128 µg/mL,128 µg/mL,64 µg/mL,32 µg/mL,> 128 µg/mL,> 128 µg/mL,> 128 µg/mL,> 128 µg/mL,> 128 µg/mL
CN[C@H](CC(C)C)C(=O)N[C@H]1C(=O)N[C@@H](CC(N)=O)C(=O)N[C@H]2C(=O)N[C@H]3C(=O)N[C@H](C(=O)N[C@H](C(=O)NCCC[S+](C)CC(O)COc4ccc(Br)cc4)c4cc(O)cc(O)c4-c4cc3ccc4O)[C@H](O)c3ccc(c(Cl)c3)Oc3cc2cc(c3O[C@@H]2O[C@H](CO)[C@@H](O)[C@H](O)[C@H]2O[C@H]2C[C@](C)(N)[C@H](O)[C@H](C)O2)Oc2ccc(cc2Cl)[C@H]1O.O=C([O-])C(F)(F)F (stereo partly specified),1 µg/mL,≤ 0.063 µg/mL,8 µg/mL,4 µg/mL,4 µg/mL,4 µg/mL,16 µg/mL,64 µg/mL,32 µg/mL,128 µg/mL,> 128 µg/mL
CN[C@H](CC(C)C)C(=O)N[C@H]1C(=O)N[C@@H](CC(N)=O)C(=O)N[C@H]2C(=O)N[C@H]3C(=O)N[C@H](C(=O)N[C@H](C(=O)O)c4cc(O)c(CNCCC[S+](C)CC(O)COc5ccc(-c6ccccc6)cc5)c(O)c4-c4cc3ccc4O)[C@H](O)c3ccc(c(Cl)c3)Oc3cc2cc(c3O[C@@H]2O[C@H](CO)[C@@H](O)[C@H](O)[C@H]2O[C@H]2C[C@](C)(N)[C@H](O)[C@H](C)O2)Oc2ccc(cc2Cl)[C@H]1O.O=C([O-])C(F)(F)F (stereo partly specified),≤ 0.063 µg/mL,≤ 0.063 µg/mL,4 µg/mL,4 µg/mL,≤ 0.063 µg/mL,≤ 0.063 µg/mL,16 µg/mL,32 µg/mL,16 µg/mL,> 128 µg/mL,> 128 µg/mL
CN[C@H](CC(C)C)C(=O)N[C@H]1C(=O)N[C@@H](CC(N)=O)C(=O)N[C@H]2C(=O)N[C@H]3C(=O)N[C@H](C(=O)N[C@H](C(=O)NCCC[S+](C)CC(O)COc4ccc(C(C)(C)C)cc4)c4cc(O)cc(O)c4-c4cc3ccc4O)[C@H](O)c3ccc(c(Cl)c3)Oc3cc2cc(c3O[C@@H]2O[C@H](CO)[C@@H](O)[C@H](O)[C@H]2O[C@H]2C[C@](C)(N)[C@H](O)[C@H](C)O2)Oc2ccc(cc2Cl)[C@H]1O.O=C([O-])C(F)(F)F (stereo partly specified),1 µg/mL,≤ 0.063 µg/mL,32 µg/mL,8 µg/mL,16 µg/mL,4 µg/mL,32 µg/mL,64 µg/mL,32 µg/mL,> 128 µg/mL,> 128 µg/mL
CC(C)C[C@H](C(=O)N[C@H]1C(=O)N[C@@H](CC(N)=O)C(=O)N[C@H]2C(=O)N[C@H]3C(=O)N[C@H](C(=O)N[C@H](C(=O)O)c4cc(O)cc(O)c4-c4cc3ccc4O)[C@H](O)c3ccc(c(Cl)c3)Oc3cc2cc(c3O[C@@H]2O[C@H](CO)[C@@H](O)[C@H](O)[C@H]2O[C@H]2C[C@](C)(N)[C@H](O)[C@H](C)O2)Oc2ccc(cc2Cl)[C@H]1O)N(C)CCC[S+](C)C[C@@H](O)COc1ccccc1.O=C([O-])C(F)(F)F (stereo partly specified),8 µg/mL,1 µg/mL,> 128 µg/mL,128 µg/mL,64 µg/mL,32 µg/mL,> 128 µg/mL,> 128 µg/mL,> 128 µg/mL,> 128 µg/mL,> 128 µg/mL
CN[C@H](CC(C)C)C(=O)N[C@H]1C(=O)N[C@@H](CC(N)=O)C(=O)N[C@H]2C(=O)N[C@H]3C(=O)N[C@H](C(=O)N[C@H](C(=O)O)c4cc(O)c(CNCCC[S+](C)CC(O)COc5ccc(-c6ccc(Cl)cc6)cc5)c(O)c4-c4cc3ccc4O)[C@H](O)c3ccc(c(Cl)c3)Oc3cc2cc(c3O[C@@H]2O[C@H](CO)[C@@H](O)[C@H](O)[C@H]2O[C@H]2C[C@](C)(N)[C@H](O)[C@H](C)O2)Oc2ccc(cc2Cl)[C@H]1O.O=C([O-])C(F)(F)F (stereo partly specified),≤ 0.063 µg/mL,≤ 0.063 µg/mL,0.5 µg/mL,2 µg/mL,≤ 0.063 µg/mL,≤ 0.063 µg/mL,8 µg/mL,16 µg/mL,16 µg/mL,> 128 µg/mL,128 µg/mL
